Experimental data reported in patent US20070092939A1, “HUMAN IMMUNODEFICIENCY VIRUS ENTRY INHIBITOR ASSAY” (priority 2003, published 2007).

Test system: co-cultivation-induced fusion between HL2/3 and HeLa-CD4-LTR-β-gal cells
Test: Cell fusion assay by co-cultivation of HL2/3 and HeLa-CD4-LTR-β-gal cells, β-galactosidase chemiluminescence readout
Type: cell-based
Settings: for Response Chemiluminescence / Response Inhibition (%): Table 1; for Chemiluminescence / Inhibition: Table 2 specificity test
Protocol: Depending on the culture vessel (T75 or T175), 0.5−2.0×10^6 HL2/3 or HeLa-CD4-LTR-β-gal cells were seeded into their respective Propagation Medium (for HL2/3, DMEM containing 10% FBS and 0.5 mg/ml G418; for HeLa-CD4-LTR-β-gal, DMEM containing 10% FBS, 0.2 mg/ml G418, and 0.1 mg/ml hygromycin B). Culture at 37° C. with 95% air/5% CO2 until the cultures reach 60% confluency, but can not exceed 95% confluency.
Remove medium by aspiration with 2-ml of glass pipette. Add 5 ml (for T75 flask) or 10 ml (for T175 flask) of the cell dissociation buffer (CDB). Incubate at room temperature for at least 20 minutes. While waiting, prepare potential entry inhibitor (e.g. TNX-355) with cold Assay Medium (DMEM supplemented with 10% FBS) for treatment. Harvest cells in a 15-ml (for T75) or 50-ml (for T175) conical centrifuge tube by repeated pipetting. Determine cell density and viability in 100 μl of samples with Trypan Blue Exclusion method. Centrifuge at 1000 rpm (or 201×g) for 5 minutes. Discard supernatant and resuspend cells in pre-warmed Assay Medium at a cell density of 1×10^6 cells/ml (for HeLa-CD4-LTR-β-gal cells) or 2×10^6 cells/ml (for HL2/3 cells).
Further dilute HeLa-CD4-LTR-β-gal cells to 0.25×10^6 cells/ml with pre-warmed Assay Medium, and pipette 90 μl to each well of a 96-well clear-bottom white-wall plate using a 12-channel pipet. Add 20 μl of drug or medium to each well as needed. Further dilute HL2/3 cells to 0.5×10^6 cells/ml with pre-warmed Assay Medium, and pipette 90 μl to each well of a 96-well clear-bottom white-wall plate using a 12-channel pipet. Total cells in each well is 6.75×10^4 cells at a ratio of 2:1 (HL2/3 to HeLa-CD4-LTR-β-gal cells). Culture cells at 37° C. with 95% air/5% CO2 for about 24 hours.
Remove the medium row by row, immediately followed by addition of 50 μl/well of Lysis Solution (Roche Lysis Buffer containing protease inhibitors). Incubate for 60 minutes at 15-25° C. with mild shaking (200-300 rpm). While waiting, dilute 1 volume of concentrated substrate with 99 volumes of Reaction Buffer to make working substrate solution.
Add 100 μl of the substrate reagent to each well row by row using 12-channel pipette. Incubate for 90 minutes at room temperature with mild shaking (200-300 rpm). While waiting, bring proper volume of Accelerator II solution to room temperature. Add 50 μl of the Accelerator II to each well row by row using 12-channel pipette. Measure light emission with a microplate luminometer. The chemiluminescence readout is reported as light units per second.
The inhibition of HIV entry inhibitors, including TNX-355, T20, SIM.4, and sCD4, was tested on the co-cultivation-induced fusion between the two cell lines (HL2/3 to HeLa-CD4-LTR-β-gal cells). TNX-355 is a humanized anti-CD4 domain 2 antibody, T20 a synthetic oligopeptide mimicking the […] HR-2 region, SIM.4 a monoclonal anti-CD4 domain 1 antibody, and sCD4 is a soluble extracellular portion of CD4 molecule. Multiple levels of each reagent were tested following the procedures described in the Materials and Methods.
Assay specificity was addressed by comparing the inhibitory activity of TNX-355 to those of two structurally similar but functionally irrelevant antibodies. These antibodies are TNX-224 (a humanized antibody IgG4 which differs in complementary determining regions (CDR) but share a majority of sequence homology to TNX-355) and TNX-901 (a humanized antibody IgG1).

## TNX-355: humanized anti-CD4 domain 2 antibody, IgG4
Reagent 0.1 ng/ml
  Response Chemiluminescence: 39185 ± 1260.79 light units per second
  Response Inhibition (%): 23.2%
Reagent 10 ng/ml
  Response Chemiluminescence: 34525 ± 2281.39 light units per second
  Response Inhibition (%): 33.7%
Reagent 25 ng/ml
  Response Chemiluminescence: 29152 ± 2492.87 light units per second
  Response Inhibition (%): 45.8%
Reagent 50 ng/ml
  Response Chemiluminescence: 23993 ± 650.74 light units per second
  Response Inhibition (%): 57.3%
Reagent 100 ng/ml
  Response Chemiluminescence: 18724 ± 989.73 light units per second
  Response Inhibition (%): 69.2%
Reagent 200 ng/ml
  Response Chemiluminescence: 12312 ± 1516.60 light units per second
  Response Inhibition (%): 83.5%
Reagent 1000 ng/ml
  Response Chemiluminescence: 6896 ± 383.09 light units per second
  Response Inhibition (%): 95.7%
Reagent 10000 ng/ml
  Response Inhibition (%): 100.0%
Reagent 10000 ng/ml, about 24 hours co-cultivation
  Response Chemiluminescence: 4978 ± 669.32 light units per second
Antibody amount 0.025 μg/ml
  Chemiluminescence: 34121 ± 714.43 light units per second
  Inhibition: 20%
Antibody amount 1.0 μg/ml
  Chemiluminescence: 5135 ± 432.41 light units per second
  Inhibition: 88%

B1: TNX-901: humanized antibody IgG1; functionally irrelevant control (antibody, chains of the INN, looked up, V domains shown)
VH: QVQLVQSGAEVKKPGASVKVSCKASGYTFSMYWLEWVRQAPGHGLEWVGEISPGTFTTNYNEKFKARATFTADTSTNTAYMELSSLRSEDTAVYYCARFSHFSGSNYDYFDYWGQGTLVTVSS
VL: DILLTQSPGTLSLSPGERATLSCRASQSIGTNIHWYQQKPGQAPRLLIKYASESISGIPSRFSGSGSGTDFTLTISRLEPEDFAMYYCQQSDSWPTTFGQGTKVEIK
Antibody amount 0.025 μg/ml
  Chemiluminescence: 42629 ± 664.10 light units per second
  Inhibition: 0%
Antibody amount 10 μg/ml
  Chemiluminescence: 42847 ± 1429.78 light units per second
  Inhibition: 0%
